The text below walks through data of patent US20110135603A1, “INHIBITORS OF PHOSPHATIDYLINOSITOL 3-KINASE” (VERTEX PHARMACEUTICALS INCORPORATED, priority 2008, published 2011).

Where two headings read alike, the source gives them in different places.

One data set addresses PI3Kγ (Homo sapiens, UniProt P48736). The experiment in a line: PI3K Inhibition Assay (33P-ATP, PI(4,5)P2 substrate), PI3Kγ isoform. It counts as biochemical. The settings on record: 2 nM final enzyme, 3 μM ATP, 30 μM PI(4,5)P2; competitive tight binding Ki fit. Here is the method: (§1) Using a Biomek FX from Beckman Coulter, 1.5 μL of each of ten 2.5-fold serial dilutions of a compound of the invention in 100% DMSO was added to an individual well (hereafter, “test well”) in a 96 well polystyrene plate [Corning, Costar Item No. 3697]. One test well also contained 1.5 μL of DMSO with no compound. […] Using a Titertek Multidrop, 50 μL of Reaction Mix [100 mM HEPES pH 7.5, 50 mM NaCl, 10 mM DTT, 0.2 mg/mL BSA, 60 μM phosphatidylinositol(4,5)bisphosphate diCl6 (PI(4,5)P2; Avanti Polar Lipids, Cat. No. 840046P) and PI3K isoform of interest (see Table 3 for isoform concentrations)] was added to each well. To initiate the reaction, 50 μL of ATP Mix [20 mM MgCl2, 6 μM ATP (100 μCi/μmole ^33P-ATP)] was added each well, followed by incubating the wells for 30 min. at 25° C. Final concentrations in each well were 50 mM HEPES 7.5, 10 mM MgCl2, 25 mM NaCl, 5 mM DTT, 0.1 mg/mL BSA, 30 μM PI(4,5)P2, 3 μM ATP, and the PI3K isoform of interest (see Table 3). Final compound concentrations in each well ranged from 10 μM to 1 nM.
(§2) After incubation, the reactions in each well were quenched by addition of 50 μL of stop solution [30% TCA/Water, 10 mM ATP]. Each quenched reaction mixture was then transferred to a 96 well glass fiber filter plate [Corning, Costar Item No. 3511]. The plate was vacuum-filtered and washed three times with 150 μL of 5% TCA/water in a modified Bio-Tek Instruments ELX-405 Auto Plate Washer. 50 μL of scintillation fluid was added to each well and the plate read on a Perkin-Elmer TopCount™ NXT liquid scintillation counter to obtain ^33P-counts representing inhibition values.
(§3) The value for the background well was subtracted from the value obtained for each test well and the data were fit to the competitive tight binding Ki equation described by Morrison and Stone, Comments Mol. Cell. Biophys. 2: 347-368, 1985.

The target of the next data set is PI3Kα (Homo sapiens, UniProt P42336). Briefly: PI3K Inhibition Assay (33P-ATP, PI(4,5)P2 substrate), PI3Kα isoform. The settings on record: 2 nM final enzyme, 3 μM ATP, 30 μM PI(4,5)P2; competitive tight binding Ki fit. Type of data set: biochemical. On the procedure: as §1, §2, §3
A short description of data set [1]: Evaluation of Brain/Plasma Concentrations. It counts as in vivo. Conditions: Sprague-Dawley rats; for concentration at 2 h: 10 mg/kg oral intragastric in 0.5% MC, two hours after administration; for Kp at 2 h: 10 mg/kg oral, two hours, average brain/plasma ratio based on data obtained for each animal. On the procedure: Selected compounds of the invention were evaluated for their ability to cross the blood-brain barrier. Accordingly, a compound of the invention was administered to Sprague-Dawley rats [10 mg/kg as a 1 mg/mL 0.5% MC solution] via oral intragastric delivery. Two hours after compound administration, the rats were anaesthetized by intramuscular administration of a 2 mL/kg Ketamine/Rompun/Acepromazine cocktail and placed onto necropsy table. The abdominal cavity was then opened with a V-cut and 300 microliters of blood was drawn directly from left ventricle for plasma concentration analysis. The blood sample was stored on ice in a 1.5 mL Eppendorf tube (containing K2EDTA) and subsequently centrifuged for 2 minutes at 2000 rpm. After centrifugation, 110 microliters of plasma was transferred to a fresh tube and stored at −70° C. until analysis. The rat was perfused with cold saline (containing 50 IU of heparin) at 20 mL/min from an infusion pump through the left ventricle of the heart. Immediately after starting the perfusion, a small cut in the right atria was made so that heparinized saline would flow through the body. The perfusion was continued until the liver appeared pale in color (about 60 mL of cold saline). The brain was removed and placed on ice, blotted dry, weighed, placed in a tube, frozen with liquid nitrogen, and stored at −70° C. until further analysis was performed.
In order to determine compound concentration in the plasma, the blood sample was prepared by protein precipitation with addition of acetonitrile at a ratio of 1:4. After vortexing and centrifugation, the supernatant was analyzed by high performance liquid chromatography-tandem mass spectrometry in positive Atmospheric Pressure Chemical Ionization (APCI) ionization mode. The analysis was done using reverse-phase high performance liquid chromatography with a 5.0 μm Xterra C18 analytical column (2.1×50 mm). Mobile phase was consists of a mixture of 10 mM ammonium acetate and acetonitrile running in a 1.5 minutes linear gradient. Aliquots of the matrix were spiked with known concentrations of the compound of interest and an internal standard. Study samples were spiked with the internal standard alone. The calibration curve generally contains final concentrations in the control matrix of 1 to 5000 ng/mL. The calibration curve was analyzed and the instrument response (area counts for compound of interest/Area Counts for internal Standard) are used to generate a calibration curve. The instrument response for study samples were compared to the calibration curve and the concentration back-calculated from the curve.
In order to determine compound concentration in the brain, the brain sample was thawed to RT, and a 0.5 weight equivalent of water was added to the sample. The sample was then completely homogenized. Two to four volumes of acetonitrile were added to the brain homogenate, the homogenate mixed and the sample centrifuged to remove protein. Similar to the method used to obtain blood concentrations, an aliquot of the sample homogenate supernatant was injected onto an LC/MS/MS running a gradient suitable for detecting the compound of interest. The instrument response was compared to the instrument response from calibration samples of brain homogenate spiked with known concentrations of compound in order to determine the brain concentration.

For data set [2], the system named is experimental autoimmune encephalomyelitis (EAE). The experiment in a line: Experimental autoimmune encephalomyelitis (EAE) mouse model of multiple sclerosis. Type of data set: in vivo. The settings on record: prophylactic administration, contrasted with animals administered vehicle alone. The text has this: See, for example, Keszthelyi et al., Neurology, 1996, 47:1053-1059.

[3] abbreviates: based on a density of rat plasma of 1.0 g/mL, read-out: Plasma Conc.
The mark [4] stands for this setting: rat, brain, average of two or three animals, read-out: Brain Conc.

PI3Kα, sequence (P42336 whole entry, species assumed, canonical isoform): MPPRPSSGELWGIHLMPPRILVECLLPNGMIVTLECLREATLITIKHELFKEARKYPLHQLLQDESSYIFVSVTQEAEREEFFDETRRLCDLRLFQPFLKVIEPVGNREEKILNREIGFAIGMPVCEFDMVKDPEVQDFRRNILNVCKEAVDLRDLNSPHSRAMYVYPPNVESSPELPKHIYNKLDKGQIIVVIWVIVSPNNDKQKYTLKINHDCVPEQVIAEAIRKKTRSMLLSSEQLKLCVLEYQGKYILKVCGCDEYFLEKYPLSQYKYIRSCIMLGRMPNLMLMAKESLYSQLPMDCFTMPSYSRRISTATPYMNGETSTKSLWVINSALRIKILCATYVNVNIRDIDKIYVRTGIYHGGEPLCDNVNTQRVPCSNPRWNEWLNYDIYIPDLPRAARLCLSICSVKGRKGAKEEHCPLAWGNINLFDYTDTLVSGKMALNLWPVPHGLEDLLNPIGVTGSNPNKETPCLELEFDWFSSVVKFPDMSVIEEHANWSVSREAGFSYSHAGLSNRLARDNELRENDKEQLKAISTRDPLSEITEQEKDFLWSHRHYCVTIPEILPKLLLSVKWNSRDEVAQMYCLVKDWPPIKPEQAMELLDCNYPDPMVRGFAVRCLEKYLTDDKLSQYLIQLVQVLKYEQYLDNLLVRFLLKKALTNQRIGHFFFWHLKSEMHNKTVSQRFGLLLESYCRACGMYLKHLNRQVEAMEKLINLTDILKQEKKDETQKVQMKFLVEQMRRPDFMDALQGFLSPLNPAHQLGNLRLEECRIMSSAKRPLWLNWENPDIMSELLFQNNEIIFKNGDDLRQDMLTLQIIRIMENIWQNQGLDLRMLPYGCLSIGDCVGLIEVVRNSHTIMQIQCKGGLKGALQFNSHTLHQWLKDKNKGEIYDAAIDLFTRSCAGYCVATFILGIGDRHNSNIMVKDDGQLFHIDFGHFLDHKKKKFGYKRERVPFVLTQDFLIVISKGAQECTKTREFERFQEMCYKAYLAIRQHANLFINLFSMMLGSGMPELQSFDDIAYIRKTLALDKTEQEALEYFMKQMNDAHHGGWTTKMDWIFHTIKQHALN
PI3Kα, sequence (P27986 whole entry partner, species assumed, canonical isoform): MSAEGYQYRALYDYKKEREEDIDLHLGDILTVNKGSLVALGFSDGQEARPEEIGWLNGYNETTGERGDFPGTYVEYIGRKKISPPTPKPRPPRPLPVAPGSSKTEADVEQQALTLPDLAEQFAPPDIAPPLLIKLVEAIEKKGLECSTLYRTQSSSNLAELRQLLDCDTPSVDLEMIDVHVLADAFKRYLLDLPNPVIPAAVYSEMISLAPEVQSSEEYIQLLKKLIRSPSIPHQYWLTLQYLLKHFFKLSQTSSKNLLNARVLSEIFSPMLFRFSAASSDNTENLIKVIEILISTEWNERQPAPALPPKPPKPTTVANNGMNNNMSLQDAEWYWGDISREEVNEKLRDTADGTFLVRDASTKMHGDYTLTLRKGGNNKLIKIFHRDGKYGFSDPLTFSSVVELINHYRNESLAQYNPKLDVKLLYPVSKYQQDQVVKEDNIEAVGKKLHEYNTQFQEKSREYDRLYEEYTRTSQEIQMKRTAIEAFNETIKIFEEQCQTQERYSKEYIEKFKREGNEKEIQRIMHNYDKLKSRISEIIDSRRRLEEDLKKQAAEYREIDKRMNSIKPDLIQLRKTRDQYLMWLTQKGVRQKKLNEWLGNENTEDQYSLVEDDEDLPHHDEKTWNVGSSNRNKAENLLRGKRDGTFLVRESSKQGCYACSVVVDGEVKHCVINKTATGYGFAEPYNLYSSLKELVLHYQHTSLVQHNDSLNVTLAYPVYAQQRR
PI3Kγ, sequence (P48736 whole entry, species assumed, canonical isoform): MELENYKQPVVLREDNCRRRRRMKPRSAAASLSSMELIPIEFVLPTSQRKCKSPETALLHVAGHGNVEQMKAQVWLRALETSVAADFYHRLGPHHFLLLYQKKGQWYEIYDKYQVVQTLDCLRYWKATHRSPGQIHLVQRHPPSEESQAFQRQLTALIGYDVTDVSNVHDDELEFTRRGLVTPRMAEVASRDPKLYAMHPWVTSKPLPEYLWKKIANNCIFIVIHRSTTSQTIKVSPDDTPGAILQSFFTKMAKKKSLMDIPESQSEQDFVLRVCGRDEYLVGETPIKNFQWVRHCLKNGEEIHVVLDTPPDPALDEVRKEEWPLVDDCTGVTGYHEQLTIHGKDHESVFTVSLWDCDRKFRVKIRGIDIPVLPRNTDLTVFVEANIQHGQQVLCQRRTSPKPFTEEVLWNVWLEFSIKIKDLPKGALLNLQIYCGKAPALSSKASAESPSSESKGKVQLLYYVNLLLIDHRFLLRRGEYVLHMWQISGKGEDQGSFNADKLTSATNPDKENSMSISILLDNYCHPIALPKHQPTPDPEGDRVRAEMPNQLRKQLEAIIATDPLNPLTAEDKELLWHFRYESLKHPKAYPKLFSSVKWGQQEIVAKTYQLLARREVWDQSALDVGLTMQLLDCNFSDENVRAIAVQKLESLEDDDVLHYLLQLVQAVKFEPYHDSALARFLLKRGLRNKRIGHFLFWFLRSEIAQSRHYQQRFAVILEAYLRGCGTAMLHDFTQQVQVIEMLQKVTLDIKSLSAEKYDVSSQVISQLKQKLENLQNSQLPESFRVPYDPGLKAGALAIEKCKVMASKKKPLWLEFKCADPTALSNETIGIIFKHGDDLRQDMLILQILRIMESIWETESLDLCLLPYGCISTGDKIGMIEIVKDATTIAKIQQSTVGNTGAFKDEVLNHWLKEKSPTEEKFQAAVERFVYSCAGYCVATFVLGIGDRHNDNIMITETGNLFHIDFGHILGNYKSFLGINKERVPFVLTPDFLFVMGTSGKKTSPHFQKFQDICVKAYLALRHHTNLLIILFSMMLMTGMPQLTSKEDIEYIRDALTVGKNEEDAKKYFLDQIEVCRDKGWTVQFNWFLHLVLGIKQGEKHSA

For the molecule `CCCOCCNC(=O)Nc1nc2ccc(-c3cncc(C(F)(F)F)c3)nc2s1` [Compound 1, 1-(5-(5-(trifluoromethyl)pyridin-3-yl)thiazolo[5,4-b]pyridin-2-yl)-3-(2-propoxyethyl)urea], the Ki – broadly, the dissociation constant of the complex between target and ligand, obtained from inhibition or displacement – on PI3Kγ lay within 10 to 100 nM; on PI3Kα, 100 to 4000 nM. Moreover, the concentration at 2 h in data set [1] (setting [3]) was 197 ng/mL; in data set [1] (setting [4]), 157 ng/g. For the same molecule, the Kp (usually tissue or fluid exposure divided by exposure in the circulation) at 2 h in data set [1] (rat) came out at 0.8.
Take `CCNC(=O)Nc1nc2ccc(-c3cncc(C(F)(F)F)c3)nc2s1` [Compound 13]: the Ki at PI3Kγ is at most 10 nM; on PI3Kα, 10 to 100 nM.
As to `CC(C)OCCCNC(=O)Nc1nc2ccc(-c3cncc(C(F)(F)F)c3)cc2s1` [Compound 3, 1-(6-(5-(trifluoromethyl)pyridin-3-yl)benzo[d]thiazol-2-yl)-3-(3-isopropoxypropyl)urea], the Ki was in the range of 10 to 100 nM at PI3Kγ and 100 to 4000 nM at PI3Kα.
Turning to `CCOCCCNC(=O)Nc1nc2ccc(-c3cncc(C(F)(F)F)c3)nc2s1` [Compound 11], the Ki at PI3Kγ is at most 10 nM; at PI3Kα, 100 to 4000 nM. Moreover, the concentration at 2 h in data set [1] (setting [3]) was 210 ng/mL; in data set [1] (setting [4]) it was 55 ng/g. Besides, in data set [1] (rat), the Kp at 2 h came to 0.3.
With `CCCOCCCNC(=O)Nc1nc2ccc(-c3cncc(C(F)(F)F)c3)nc2s1` [Compound 2], the figures for the Ki at PI3Kγ and at PI3Kα were 10 to 100 nM and 100 to 4000 nM, respectively.
Turning to `COCCCNC(=O)Nc1nc2ccc(-c3cncc(C(F)(F)F)c3)nc2s1` [Compound 10], the inhibition constant Ki is at most 10 nM on PI3Kγ and 10 to 100 nM at PI3Kα. For the same molecule, the concentration at 2 h amounted to 985 ng/mL in data set [1] (setting [3]) and 662 ng/g in data set [1] (setting [4]). In addition, in data set [1] (rat), the Kp at 2 h was 0.7. The “Effect on disease in EAE” value in data set [2] is “disease suppression”.
